{"source": "patent US20250049025A1", "about": "“SURFACTANTS FOR USE IN AGRICULTURAL FORMULATIONS” (AdvanSix Resins & Chemicals LLC, priority 2023, published 2025)", "key": {"S. mutans (25715)": {"system": "S. mutans (25715)", "experiment": "Minimum inhibitory concentration (MIC) test, serial dilution", "assay_type": "cell-based, Streptococcus mutans", "text": "(§1) Surfactants of the present disclosure have been shown in a standard protocol to assess antimicrobial activities called minimum inhibitory concentration (MIC) tests.\n(§2) The antimicrobial properties of surfactants were examined using known methods and standard protocols, and various types of microorganisms as treatment targets. More specifically a minimum inhibitory concentration (MIC) test protocol was applied, using serial dilution method, giving concentration-dependent microorganism growth inhibition measurements against gram positive (e.g., Streptococcus mutans, which is anaerobic, and Staphylococcus aureus, which is usually aerobic but can grow also anaerobically), gram negative (e.g., Escherichia coli, which is anaerobic, or Pseudomonas aeruginosa, which is aerobic).\n(§3) Bacteria were propagated overnight in a suitable growth medium, which was a Tryptic Soy Broth. Prior to testing, the concentrations of the test organisms were established using a spectrophotometer that can measure optical density. Those bacterial samples were then diluted to about 1E3 to 1E4 CFU/mL. Thereafter, […] of the bacterial cultures thus prepared were inoculated into test wells of a 96-well plate, each containing suitable growth media, which was Tryptic Soy Agar, and once the bacterial cultures were inoculated, these wells were then treated with the test specimen, serially diluted, incubated at a temperature of 37+/−1° C. and relative humidity of not less than 90% for about 24+/−1 hour.\n(§4) Test surfactants were prepared into dilution series. All dilutions were conducted serially using a multichannel pipetter into 96-well microtiter plates.\n(§5) The MIC was then used to determine the approximate concentration of the test surfactant at which there was inhibition of bacterial growth. […]\n(§6) Test measurements were made on replicate 96-well plates, and reported as the rounded whole number average of the determined MIC. […] Measurement variability was then reported based on the determined average in the form of MIC+/−."}, "E. coli (8739)": {"system": "E. coli (8739)", "experiment": "Minimum inhibitory concentration (MIC) test, serial dilution", "assay_type": "cell-based, Escherichia coli", "details": "24 hours, serial dilution 1.7 fold", "text": "as §1, §2\n(§7) Bacteria were propagated overnight in a suitable growth medium, which was a Tryptic Soy Broth. Prior to testing, the concentrations of the test organisms were established using a spectrophotometer that can measure optical density. Those bacterial samples were then diluted to about 1E3 to 1E4 CFU/mL. […]\nas §6"}, "P. aeruginosa (9027)": {"system": "P. aeruginosa (9027)", "experiment": "Minimum inhibitory concentration (MIC) test, serial dilution", "assay_type": "cell-based, Pseudomonas aeruginosa", "details": "24 hours, serial dilution 1.7 fold, 400 ppm max", "text": "as §1, §2, §7, §6"}, "S. aureus (6538)": {"system": "S. aureus (6538)", "experiment": "Minimum inhibitory concentration (MIC) test, serial dilution", "assay_type": "cell-based, Staphylococcus aureus", "text": "as §1, §2, §3, §4, §5, §6"}, "[1]": {"experiment": "Critical micelle concentration and minimum surface tension from surface tension versus concentration in water (Wilhelmy plate method)", "assay_type": "physicochemical", "details": "for critical micelle concentration (CMC) / plateau value of minimum surface tension: in water; for interfacial activity / surfactant properties (in words): judged from CMC and minimum surface tension", "text": "These properties may be measured and described by various methods. One method by which surfactants may be described is by the molecule's critical micelle concentration (CMC). CMC may be defined as the concentration of a surfactant at which micelles form, and above which all additional surfactant is incorporated into micelles.\nAs surfactant concentration increases, surface tension decreases. Once the surface is completely overlaid with surfactant molecules, micelles begin to form. This point represents the CMC, as well as the minimum surface tension. Further addition of surfactant will not further affect the surface tension. CMC may therefore be measured by observing the change in surface tension as a function of surfactant concentration. One such method for measuring this value is the Wilhemy plate method. A Wilhelmy plate is usually a thin iridium-platinum plate attached to a balance by a wire and placed perpendicularly to the air-liquid interface. The balance is used to measure the force exerted on the plate by wetting. This value is then used to calculate the surface tension (γ) according to Equation 1: […]\nwherein I is equal to the wetted perimeter (2w+2d, in which w and d are the plate thickness and width, respectively) and cos θ, the contact angle between the liquid and the plate, is assumed to be 0 in the absence of an extant literature value.\nNuclear magnetic resonance (NMR) spectroscopy was performed on a Bruker 500 MHz spectrometer. The critical micelle concentration (CMC) was determined by the Wilhelmy plate method at 23° C. with a tensiometer (DCAT 11, DataPhysics Instruments GmbH) equipped with a Pt—Ir plate. Dynamic surface tension was determined with a bubble pressure tensiometer (Krüss BP100, Krüss GmbH), at 23° C. Contact angle was determined with the optical contact angle goniometer (OCA 15 Pro, DataPhysics GmbH) equipped with a digital camera."}, "[2]": {"details": "24 hours, serial dilution 1.7 fold, 20 ppm max"}}, "note": "Where two headings read alike, the source gives them in different places."}
{"smiles": "CCCCCCCCCCCCCC[N+](C)(C)Cc1ccccc1.[Cl-]", "note": "[ADBAC, reference compound]", "values": [{"measurement": "MIC", "setting": "S. mutans (25715); [2]", "result": "7 +/− 3 ppm"}, {"measurement": "MIC", "setting": "E. coli (8739); 20 ppm max", "result": "16 +/− 7 ppm"}, {"measurement": "MIC", "setting": "P. aeruginosa (9027)", "result": "48 +/− 20 ppm"}, {"measurement": "MIC", "setting": "S. aureus (6538); [2]", "result": "7 +/− 3 ppm"}]}
{"smiles": "C[N+](C)(CCCCCC(=O)NCCC[Si](O[Si](C)(C)C)(O[Si](C)(C)C)O[Si](C)(C)C)CC(=O)O", "note": "[Comparative Surfactant, N-(carboxymethyl)-6-((3-(1,1,1,5,5,5-hexamethyl-3-((trimethylsilyl)oxy)trisiloxan-3-yl)propyl)amino)-N,N-dimethyl-6-oxohexan-1-aminium bromide, reference compound]", "values": [{"measurement": "critical micelle concentration (CMC)", "setting": "[1]; 23° C.", "result": "about 17.28 mmol"}, {"measurement": "plateau value of minimum surface tension", "setting": "[1]; 23° C.", "result": "about 29.16 mN/m"}, {"measurement": "interfacial activity / surfactant properties (in words)", "setting": "[1]", "result": "inferior surfactant properties"}]}
{"smiles": "C[N+](C)(CCCCCC(=O)NCCC[Si](O[Si](C)(C)C)(O[Si](C)(C)C)O[Si](C)(C)C)Cc1ccccc1", "note": "[Surfactant 1, N-benzyl-6-((3-(1,1,1,5,5,5-hexamethyl-3-((trimethylsilyl)oxy)trisiloxan-3-yl)propyl)amino)-N,N-dimethyl-6-oxohexan-1-aminium bromide]", "values": [{"measurement": "plateau value of minimum surface tension", "setting": "[1]; 23° C.", "result": "around 20.67 mN/m"}, {"measurement": "critical micelle concentration (CMC)", "setting": "[1]; pH 8, 23° C.", "result": "about 9.883 mmol"}, {"measurement": "interfacial activity / surfactant properties (in words)", "setting": "[1]", "result": "outstanding interfacial activity"}]}
{"smiles": "CCOC(=O)C[N+](C)(C)CCCCCC(=O)NCCC[Si](O[Si](C)(C)C)(O[Si](C)(C)C)O[Si](C)(C)C", "note": "[Surfactant 2, N-(2-ethoxy-2-oxoethyl)-6-((3-(1,1,1,5,5,5-hexamethyl-3-((trimethylsilyl)oxy)trisiloxan-3-yl)propyl)amino)-N,N-dimethyl-6-oxohexan-1-aminium bromide]", "values": [{"measurement": "critical micelle concentration (CMC)", "setting": "[1]; 23° C.", "result": "about 0.2171 mmol"}, {"measurement": "plateau value of minimum surface tension", "setting": "[1]; 23° C.", "result": "around 20.36 mN/m"}, {"measurement": "interfacial activity / surfactant properties (in words)", "setting": "[1]", "result": "outstanding interfacial activity"}]}
{"smiles": "C=CC[N+](C)(C)CCCCCC(=O)NCCC[Si](O[Si](C)(C)C)(O[Si](C)(C)C)O[Si](C)(C)C", "note": "[Surfactant 3, N-allyl-6-((3-(1,1,1,5,5,5-hexamethyl-3-((trimethylsilyl)oxy)trisiloxan-3-yl)propyl)amino)-N,N-dimethyl-6-oxohexan-1-aminium iodide]", "values": [{"measurement": "critical micelle concentration (CMC)", "setting": "[1]; 23° C.", "result": "about 1.3599 mmol"}, {"measurement": "plateau value of minimum surface tension", "setting": "[1]; 23° C.", "result": "about 20.67 mN/m"}, {"measurement": "interfacial activity / surfactant properties (in words)", "setting": "[1]", "result": "outstanding interfacial activity"}]}
{"smiles": "C#CC[N+](C)(C)CCCCCC(=O)NCCC[Si](O[Si](C)(C)C)(O[Si](C)(C)C)O[Si](C)(C)C", "note": "[Surfactant 4, 6-((3-(1,1,1,5,5,5-hexamethyl-3-((trimethylsilyl)oxy)trisiloxan-3-yl)propyl)amino)-N,N-dimethyl-6-oxo-N-(prop-2-yn-1-yl)hexan-1-aminium bromide]", "values": [{"measurement": "critical micelle concentration (CMC)", "setting": "[1]; 23° C.", "result": "about 0.2419 mmol"}, {"measurement": "plateau value of minimum surface tension", "setting": "[1]; 23° C.", "result": "about 20.54 mN/m"}, {"measurement": "interfacial activity / surfactant properties (in words)", "setting": "[1]", "result": "outstanding interfacial activity"}]}
{"smiles": "COCCOCC[N+](C)(C)CCCCCC(=O)NCCC[Si](O[Si](C)(C)C)(O[Si](C)(C)C)O[Si](C)(C)C", "note": "[Surfactant 5, 6-((3-(1,1,1,5,5,5-hexamethyl-3-((trimethylsilyl)oxy)trisiloxan-3-yl)propyl)amino)-N-(2-(2-methoxyethoxy)ethyl)-N,N-dimethyl-6-oxohexan-1-aminium bromide]", "values": [{"measurement": "critical micelle concentration (CMC)", "setting": "[1]; 23° C.", "result": "about 0.4622 mmol"}, {"measurement": "plateau value of minimum surface tension", "setting": "[1]; 23° C.", "result": "about 20.40 mN/m"}, {"measurement": "interfacial activity / surfactant properties (in words)", "setting": "[1]", "result": "outstanding interfacial activity"}]}
{"smiles": "CCOP(=O)(CCC[N+](C)(C)CCCCCC(=O)NCCC[Si](O[Si](C)(C)C)(O[Si](C)(C)C)O[Si](C)(C)C)OCC", "note": "[Surfactant 6, N-(3-(diethoxyphosphoryl)propyl)-6-((3-(1,1,1,5,5,5-hexamethyl-3-((trimethylsilyl)oxy)trisiloxan-3-yl)propyl)amino)-N,N-dimethyl-6-oxohexan-1-aminium bromide]", "values": [{"measurement": "MIC", "setting": "S. mutans (25715); Streptococcus mutans, 24 h", "result": 81, "unit": "µg/mL"}, {"measurement": "critical micelle concentration (CMC)", "setting": "[1]; 23° C.", "result": "about 0.3989 mmol"}, {"measurement": "plateau value of minimum surface tension", "setting": "[1]; 23° C.", "result": "about 20.48 mN/m"}, {"measurement": "interfacial activity / surfactant properties (in words)", "setting": "[1]", "result": "outstanding interfacial activity"}, {"measurement": "MIC", "setting": "S. aureus (6538); Staphylococcus aureus, 24 h", "result": 138, "unit": "µg/mL"}]}
{"smiles": "C[N+](C)(CCCO)CCCCCC(=O)NCCC[Si](O[Si](C)(C)C)(O[Si](C)(C)C)O[Si](C)(C)C", "note": "[Surfactant 7, 6-((3-(1,1,1,5,5,5-hexamethyl-3-((trimethylsilyl)oxy)trisiloxan-3-yl)propyl)amino)-N-(3-hydroxypropyl)-N,N-dimethyl-6-oxohexan-1-aminium iodide]", "values": [{"measurement": "critical micelle concentration (CMC)", "setting": "[1]; 23° C.", "result": "about 0.4568 mmol"}, {"measurement": "plateau value of minimum surface tension", "setting": "[1]; 23° C.", "result": "about 20.61 mN/m"}, {"measurement": "interfacial activity / surfactant properties (in words)", "setting": "[1]", "result": "outstanding interfacial activity"}, {"measurement": "MIC", "setting": "E. coli (8739); Escherichia coli, 400 ppm max, read-out: MIC", "result": 81, "unit": "µg/mL"}, {"measurement": "MIC", "setting": "P. aeruginosa (9027); Pseudomonas aeruginosa, read-out: MIC", "result": 81, "unit": "µg/mL"}]}
{"smiles": "C[N+](C)(CCO)CCCCCC(=O)NCCC[Si](O[Si](C)(C)C)(O[Si](C)(C)C)O[Si](C)(C)C", "note": "[Surfactant 8, 6-((3-(1,1,1,5,5,5-hexamethyl-3-((trimethylsilyl)oxy)trisiloxan-3-yl)propyl)amino)-N-(2-hydroxyethyl)-N,N-dimethyl-6-oxohexan-1-aminium iodide]", "values": [{"measurement": "critical micelle concentration (CMC)", "setting": "[1]; 23° C.", "result": "about 0.9986 mmol"}, {"measurement": "plateau value of minimum surface tension", "setting": "[1]; 23° C.", "result": "about 20.41 mN/m"}, {"measurement": "interfacial activity / surfactant properties (in words)", "setting": "[1]", "result": "outstanding interfacial activity"}]}
{"smiles": "C[N+](C)(CCCCCC(=O)O)CCCCCC(=O)NCCC[Si](O[Si](C)(C)C)(O[Si](C)(C)C)O[Si](C)(C)C", "note": "[Surfactant 9, N-(5-carboxypentyl)-6-((3-(1,1,1,5,5,5-hexamethyl-3-((trimethylsilyl)oxy)trisiloxan-3-yl)propyl)amino)-N,N-dimethyl-6-oxohexan-1-aminium bromide]", "values": [{"measurement": "MIC", "setting": "S. mutans (25715); Streptococcus mutans, 24 hours, serial dilution 1.7 fold, 400 ppm max, read-out: MIC", "result": 81, "unit": "µg/mL"}, {"measurement": "critical micelle concentration (CMC)", "setting": "[1]; 23° C.", "result": "about 0.2237 mmol"}, {"measurement": "plateau value of minimum surface tension", "setting": "[1]; 23° C.", "result": "about 20.52 mN/m"}, {"measurement": "interfacial activity / surfactant properties (in words)", "setting": "[1]", "result": "excellent interfacial activity"}, {"measurement": "MIC", "setting": "S. aureus (6538); Staphylococcus aureus, 24 hours, serial dilution 1.7 fold, 400 ppm max, read-out: MIC", "result": 138, "unit": "µg/mL"}]}
{"smiles": "C[N+](C)(CCCCCC(=O)NCCC[Si](O[Si](C)(C)C)(O[Si](C)(C)C)O[Si](C)(C)C)CCC[N+](C)(C)CCCCCC(=O)NCCC[Si](O[Si](C)(C)C)(O[Si](C)(C)C)O[Si](C)(C)C", "note": "[Surfactant 10, N^1,N^3-bis(6-((3-(1,1,1,5,5,5-hexamethyl-3-((trimethylsilyl)oxy)trisiloxan-3-yl)propyl)amino)-6-oxohexyl)-N^1,N^1,N^3,N^3-tetramethylpropane-1,3-diaminium dibromide]", "values": [{"measurement": "critical micelle concentration (CMC)", "setting": "[1]; 23° C.", "result": "about 0.0631 mmol"}, {"measurement": "plateau value of minimum surface tension", "setting": "[1]; 23° C.", "result": "about 22.12 mN/m"}, {"measurement": "interfacial activity / surfactant properties (in words)", "setting": "[1]", "result": "has interfacial activity"}]}
